Experiments:
[1] = system: cancer cells (DLD-1, AsPc-1, B16-BL6); test: Cytotoxicity assay (WST-1); format: cell-based; conditions: 5 μM, 48 hours
Method: (§1) To verify the cytotoxicity of (S)-(−)-benproperine, prepared in Example 1, DLD-1 cells (ATCC-CCL-221), a human colorectal cancer cell line, AsPc-1′ cells (ATCC-CRL-1682), a pancreatic cancer cell line, B16-BL6 cells (ATCC-CRL-6475), a melanoma cell line, and normal cells of MCF10A (ATCC-CRL-10317) were cultured in an RPM medium containing 10% fetal bovine serum (FBS) while maintaining a temperature at 37° C. and 5% CO2, and the cells were then detached from the medium using 0.05% trypsin-EDTA. Each well of a 96-well plate including the medium containing 10% FBS was inoculated with 410^3 cells, calculated with a hemocytometer, and the cells were cultured in an incubator containing 5% CO2 at 37° C.
(§2) After 24 hours, the medium of each well was replaced with a new medium containing a control group (0.1% DMSO) and 5 μM of benproperine, prepared in either of Example 1 or Comparative Example 1. The cells in the new media were then cultured in an incubator containing 5% CO2 at 37° C. for 48 hours. Each well was then charged with 10 μL of WST-1 (Roche), culturing was continued for 2 hours, and absorbance was measured at 450 nm by ELISA Reader (Bio-Rad).

normal cells of MCF10A = test: Cytotoxicity assay (WST-1); format: cell-based; conditions: 5 μM, 48 hours
Method: as §1, §2

[2] = system: DLD-1 cells, PRL-3 over-expressed colorectal cancer cell line; test: Transwell cell migration assay; format: cell-based, human; conditions: for inhibition at 0.5 µM: DLD-1, 0.5 μM (FIG. 3b); for inhibition at 0.5 µM / inhibition at 5 µM: compared to DMSO-treated control; for inhibition at 5 µM: DLD-1, 5 μM (FIG. 3a)
Method: (§3) To analyze inhibitory activity against the migration and invasion of (S)-(−)-benproperine cancer cells, a cell migration and invasion assay was caned out using DLD-1 cells (ATCC-CCL-221), a PRL-3 over-expressed colorectal cancer cell line, using a transwell as described below.
(§4) First, DLD-1 cells (ATCC-CCL-221) were allowed to grow to about 90% in a culturing plate containing an RPMI medium, then removed from the medium and washed with PBS. The washed cells were treated with trypsin-EDTA and cultured in a CO2 incubator at 37° C. for […] to detach the cells. Then an RPMI medium containing 10% FBS was added thereto, and the cells were collected in a Falcon tube and centrifuged to remove the medium. The thus-obtained cells were charged with an FBS-free RPMI medium and centrifuged to remove the medium, and these step were repeated twice. The thus-obtained cells were charged with an FBS-free RPMI medium and then suspended to measure the number of cells using a hemocytometer.
(§5) Thereafter, the transwell was placed on top of a 24-well plate and charged with cells of 8×10^4 cell/200 The transwell was charged with 500 μL of an FBS-free RPMI medium containing the (S)-(−)-benproperine, prepared in Example 1, through the gap, and cultured in a CO2 incubator at 37° C. for 12 hours to 16 hours. After culturing, the transwell was turned upside down on a hand towel to remove the medium, then each well of the 24-well plate was charged with 500 μL of crystal violet (5 mg/mL in 20% MeOH). The transwell was placed back on top of the 24-well plate and incubated in a CO2 incubator for 30 minutes. The stained transwell was washed with PBS and turned upside down on a hand towel to let the remaining solution infiltrate into the hand towel. A region where the cells had not moved was labeled as the top of a film by placing a cover slip on top of the film, and the cells that had not moved were wiped off with a cotton swab. A small amount of nail polish was applied to the edge of the cover slip, and a slide glass was placed on top to fix the cover slip. The thus-prepared sample was photographed using an inverted microscope (TE 300, Nikon, Japan) with a digital camera installed, and the number of migrated cells was calculated.
Subsequently, cell migration inhibition was calculated via Mathematical Formula 1 shown below.
(§6) According to the Mathematical Formula 1 above, “the number of migrated cells in sample-treated group” refers to a number of migrated cells measured after treating DLD-1 with (S)-(−)-benproperine (S-Benp) prepared in Example 1, (R)-(+)-benproperine (R-Benp) prepared in Comparative Example 1, or a mixed racemate having a 1:1 weight ratio of (S)-(−)-benproperine to (R)-(+)-benproperine, and “the number of migrated cells in control group” refers to a number of migrated cells measured after treating DLD-1 with 1% dimethyl sulfoxide (DMSO) alone, instead of benproperine.

MCF10A cells = test: Transwell cell migration assay, normal cells; format: cell-based; conditions: 10 μM (FIG. 4)
[3] = system: DLD-1 cells, PRL-3 over-expressed colorectal cancer cell line; test: Transwell cell invasion assay; format: cell-based; conditions: Homo sapiens; for inhibition at 1 µM: DLD-1, 1 μM (FIG. 5b); for inhibition at 1 µM / inhibition at 5 µM: compared to DMSO-treated control; for inhibition at 2 µM: DLD-1, 2 μM (FIG. 5b); for inhibition at 5 µM: DLD-1, 5 μM (FIG. 5a)
Method: as §3, §4, §5, §6

[4] = Acute toxicity experiment of oral administration on rats; conditions: SD, in vivo, 1000 mg/kg; rat, oral; read-out: minimum lethal oral dose (LD50)
Method: (§7) 6-week-old specific pathogen free SD type rats were divided into groups, where each group contains two rats. The (S)-(−)-benproperine, prepared in Example 1, was dissolved in water for injection, and orally administered to each rat once at a volume of 1000 mg/kg.

SD type rats = test: as above; conditions: rat, in vivo, po, 1000 mg/kg
Method: as §7

SMILES	cytotoxicity [1]	cytotoxicity (normal cells of MCF10A)	inhibitory activity against cell migration relative to the racemate ([2]; DLD-1, 52% at 1 μM vs racemate 53% at 2 μM)	inhibition at 0.5 µM ([2]; Homo sapiens) [%]	inhibition at 1 µM ([2]; Homo sapiens, DLD-1, 1 μM (FIG. 3b)) [%]	inhibition at 5 µM ([2]; Homo sapiens) [%]	inhibition of migration of normal cells (MCF10A cells)	inhibition at 1 µM [3] [%]	inhibition at 2 µM [3] [%]	inhibition at 5 µM [3] [%]	highest tested oral dose (no deaths) [4] [mg/kg]	animal death (SD type rats)	clinical symptoms (SD type rats)	toxicity in weight fluctuation, hematological and blood biochemical examinations, post-mortem reports (SD type rats)	inhibition at 2 µM ([2]; Homo sapiens, DLD-1, 2 μM (FIG. 3b)) [%]
C[C@@H](COc1ccccc1Cc1ccccc1)N1CCCCC1 [(S)-(−)-benproperine]	did not exhibit the cytotoxicity	did not exhibit the cytotoxicity	twice as much inhibitory activity against the cell migration as the racemate	32	52	89	did not inhibit the migration	36	57	90	1000	none died	showed noteworthy clinical symptoms	nor showed any toxicity	
CC(COc1ccccc1Cc1ccccc1)N1CCCCC1 (racemic) [racemate, 1-[1-(2-benzylphenoxy)propan-2-yl]piperidine, reference compound]				3		71		21	36	73					53

— patent US20160095845A1, “COMPOSITION COMPRISING (S)-(-)-BENPROPERINE FOR PREVENTING OR TREATING CANCER” (KOREA RESEARCH INSTITUTE OF BIOSCIENCE AND BIOTECHNOLOGY, priority 2014, published 2016)
